These results are taken from article PMC12424289, “Programmable Nanostructure Assembly of a Paclitaxel Derivative Enables Tunable Anticancer Therapy via Hydrogen Bond Engineering” (ACS Nano, 2025).

Each structure is given as a SMILES string.

Data set [1] in a line: Surface tension measurement / critical aggregation concentration. Type of data set: physicochemical. The procedure: Surface tension measurements were conducted at 25 °C using a drop shape analyzer (DSA30S; Kruss, Germany). Starting with a 5.0 mg·mL^–1 PTP dispersion, serial dilutions were prepared to obtain a range of lower concentrations. Following overnight assembly, the PTP dispersion was drawn into a syringe (HENKE-JECT, Germany), and a droplet was suspended from the needle tip. The outer diameter of the needle (1.825 mm) served as the reference for image analysis. Images of the droplet were captured, and the surface tension was calculated using the Young–Laplace equation based on the droplet’s shape.

For the next data set, the system named is subcutaneous 4T1 tumors. In words: Antitumor efficacy and safety in subcutaneous 4T1 tumor model. Conditions: 4T1 model, iv 10.0 mg·kg^–1 PTX equivalent, five doses. It counts as in vivo. The procedure:
For pharmacodynamic evaluation, female Balb/c mice (18–22 g, n = 6 per group) bearing subcutaneous 4T1 tumors (approximately 50 mm^3) received intravenous injections every other day for five doses at 10.0 mg·kg^–1 (PTX equivalent). Tumor volume and body weight were monitored daily until day 14, when tumors were excised and photographed. At study termination (day 14), major organs (heart, liver, spleen, lungs, and kidneys) were collected from these mice. The organs were fixed in 4% paraformaldehyde, dehydrated with ethanol, and cleared with xylene. Afterward, the tissues were embedded in paraffin wax and sectioned after dipping wax operation at 60 °C. The sections were then stained with hematoxylin and eosin for histological examination.

As for `CC(=O)O[C@H]1C(=O)[C@@]2(C)[C@H]([C@H](OC(=O)c3ccccc3)[C@]3(O)C[C@H](OC(=O)[C@H](OC(=O)CCP(=O)(O)O)[C@@H](NC(=O)c4ccccc4)c4ccccc4)C(C)=C1C3(C)C)[C@]1(OC(C)=O)CO[C@@H]1C[C@@H]2O` [PTP, PTX-2’–OOC-P], in data set [1] (above 1.0 mg·mL^–1), the “water–air surface tension (plateau)” value is given as “approximately 55.0 mN·m^–1”. For the same molecule, the critical aggregation concentration in data set [1] (water, 25 °C, inflection of surface tension versus log concentration) is reported as 0.6 mg·mL^–1. Further, the “safety: body weight and renal histology” value with subcutaneous 4T1 tumors was “renal inflammation”.
